Experimental data: EP0913150A1, “Combination of actives, viz. salicyl alcohol and fumaric acid and/or maleic acid, for the treatment of seborrheoic skin diseases, especially psoriasis” (Phytexpert, Pharm-Tox-Consulting GmbH, priority 1997, dated 1999)
≈ marks a conversion by molar mass, not a printed value. Like-named read-outs stand apart in the source and are kept apart here.

Assays:
[1] = system: menschlichen Keratinozyten (HaCat); assay: Inhibition of cell proliferation, neutral red (NR) method; assay type: cell-based; conditions: Homo sapiens, read-out: NR-Methode *IC50
Description: (§1) Die Zellproliferation der Hautzellen wurde anhand der bekannten Neutralrotmethode untersucht. Die Zellschädigung wurde durch gleichzeitige Untersuchung der Freisetzung eines cytosolischen Enzyms, der Lactatdehydrogenase, zusätzlich bestimmt. In einigen Versuchen wurde auch die DNA-Synthese anhand der Inkorporation von ^3H-Thymidin mituntersucht.

[2] = Cytotoxicity, release of lactate dehydrogenase (LDH); assay type: cell-based, menschlichen; conditions: human
Description: as §1

[3] = system: menschlichen Keratinozyten (HaCat); assay: DNA synthesis, 3H-thymidine incorporation; assay type: cell-based; conditions: Homo sapiens; HaCat keratinocytes; influence on DNA synthesis; read-out: ^3H-Thymidin-Einbau
Description: as §1

[4] = HaCat keratinocytes, 50% inhibition of cell growth

SMILES | IC50 ([1]; HaCaT) [µg/mL] | CC50 ([2]; hacat keratinocytes) [µg/mL] | IC50 [1, 4] [µg/mL] | CC50 ([2]; HaCat keratinocytes, measure of cytotoxicity, as concentration of the active substance, read-out: LDH-Freisetzung*) [µg/mL] | IC50 [3] [µg/mL]
C[C@@H]1C[C@H]2[C@@H]3CCC4=CC(=O)C=C[C@]4(C)[C@@]3(F)[C@@H](O)C[C@]2(C)[C@@]1(O)C(=O)CO [Dexamethason] | 800 (≈ 2.04 mM) | > 600 |  |  | 
O=C(O)/C=C\C(=O)O [Maleinsäure] |  | > 1000 | 1700 (≈ 14.6 mM) |  | 
O=C(O)/C=C/C(=O)O [Na-Fumarat, Natriumfumarat] |  | > 10000 | 4900 (≈ 42.2 mM) |  | 
O=C(O)c1ccccc1O [Na-Salicylat, Natriumsalicylat] | 1500 (≈ 10.9 mM) |  |  | > 2000 | 
O=Cc1ccccc1O [Salicylaldehyd] |  | > 100 | 34 (≈ 0.278 mM) |  | 
OCc1ccccc1O [Salicylalkohol, 2-Hydroxybenzylalkohol] |  | > 600 | 780 (≈ 6.28 mM) |  | 300 (≈ 2.42 mM)
